Results on 30 compounds are retold here after patent US9273058B2 (BRISTOL-MYERS SQUIBB COMPANY, priority 2013, dated 2016).

Experiment [1] has as its target CK1ε (Homo sapiens, UniProt P49674). Put plainly: CK1ε kinase assay (Caliper LabChip electrophoretic separation of fluoresceinated peptide substrate and product). Type of experiment: biochemical. Particulars: 200 pM CK1ε, 50 μM ATP, 1.5 μM peptide, 22 hours at room temperature; read-out: CK1ε IC50 range. As for the experimental part: (§1) CK1ε and CK1δ Kinase Assays
(§2) The kinase assay was performed in V-bottom 384-well plates. […] The reaction was incubated at room temperature for 22 hours and terminated by adding 45 μl of 35 mM EDTA to each sample. The reaction mixture was analyzed on the Caliper LABCHIP®3000 (Caliper, Hopkinton, Mass.) by electrophoretic separation of the unphosphorylated substrate and phosphorylated product. […] Compounds were dissolved at 10 mM in dimethylsulfoxide (DMSO) and evaluated at eleven concentrations. IC50 values were derived by non-linear regression analysis.

The target of experiment [2] is CK1δ (Homo sapiens, UniProt P48730). Put plainly: CK1δ kinase assay (Caliper LabChip electrophoretic separation of fluoresceinated peptide substrate and product). Type of experiment: biochemical. Particulars: 200 pM CK1δ, 50 μM ATP, 1.5 μM peptide, 22 hours at room temperature; read-out: CK1δ IC50 range. As for the experimental part:
as §1, §2

Molecules are shown by their SMILES.

CK1δ, sequence (P48730 whole entry): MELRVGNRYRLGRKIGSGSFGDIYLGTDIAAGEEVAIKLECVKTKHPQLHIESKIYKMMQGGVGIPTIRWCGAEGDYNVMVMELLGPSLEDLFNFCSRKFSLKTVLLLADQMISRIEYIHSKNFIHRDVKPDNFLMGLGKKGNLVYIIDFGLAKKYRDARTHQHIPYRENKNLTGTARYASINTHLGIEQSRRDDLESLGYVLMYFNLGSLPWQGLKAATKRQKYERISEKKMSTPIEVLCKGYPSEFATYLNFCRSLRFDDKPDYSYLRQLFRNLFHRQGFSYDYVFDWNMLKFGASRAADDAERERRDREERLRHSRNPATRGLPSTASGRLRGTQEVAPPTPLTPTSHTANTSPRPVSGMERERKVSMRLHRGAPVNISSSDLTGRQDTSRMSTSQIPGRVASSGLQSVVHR
CK1ε, sequence (P49674 whole entry): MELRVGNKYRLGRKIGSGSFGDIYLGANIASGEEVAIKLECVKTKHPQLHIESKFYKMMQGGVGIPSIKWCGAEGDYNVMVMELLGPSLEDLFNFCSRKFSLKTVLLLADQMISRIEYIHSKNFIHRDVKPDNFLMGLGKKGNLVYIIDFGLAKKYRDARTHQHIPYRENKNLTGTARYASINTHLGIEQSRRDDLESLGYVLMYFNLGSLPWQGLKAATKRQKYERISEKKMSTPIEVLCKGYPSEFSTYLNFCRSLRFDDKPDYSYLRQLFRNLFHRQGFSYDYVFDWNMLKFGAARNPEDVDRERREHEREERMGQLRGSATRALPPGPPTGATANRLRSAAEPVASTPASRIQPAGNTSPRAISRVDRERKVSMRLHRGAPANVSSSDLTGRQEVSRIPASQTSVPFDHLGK

With `CCC1CN(C(=O)NC(C)(C)C)Cc2c(C(N)=O)c(-c3ccc(F)c(Cl)c3)nn21` (single isomer, unassigned) [Compound A98, N^5-(tert-Butyl)-2-(3-chloro-4-fluorophenyl)-7-ethyl-6,7-dihydropyrazolo[1,5-a]pyrazine-3,5(4H)-dicarboxamide], the IC50 in experiment [1] was 0.01 to 10 nM. In the case of `NC(=O)c1c(-c2ccc(F)cc2)nn2c1CN(C(=O)NC1CCCCC1)CC2` [Compound 3, N^5-Cyclohexyl-2-(4-fluorophenyl)-6,7-dihydropyrazolo[1,5-a]pyrazine-3,5(4H)-dicarboxamide], the IC50 in experiment [1] lay in the range of 10 to 100 nM. As for `CC(C)(NC(=O)N1CCn2nc(-c3cccc(F)c3)c(C(N)=O)c2C1)c1ccc(F)cc1` [Compound 17, 2-(3-Fluorophenyl)-N^5-(2-(4-fluorophenyl)propan-2-yl)-6,7-dihydropyrazolo[1,5-a]pyrazine-3,5(4H)-dicarboxamide], the half-maximal inhibitory concentration (IC50) in experiment [1] was 10 to 100 nM. In the case of `CC(C)(NC(=O)N1CCn2nc(-c3cccc(F)c3)c(C(N)=O)c2C1)c1ccccc1` [Compound 25, 2-(3-Fluorophenyl)-N^5-(2-phenylpropan-2-yl)-6,7-dihydropyrazolo[1,5-a]pyrazine-3,5(4H)-dicarboxamide], the concentration for half-maximal inhibition (IC50) in experiment [1] lay in the range of 10 to 100 nM.

`NC(=O)c1c(-c2cccc(F)c2)nn2c1CN(C(=O)Nc1ccc(F)c(F)c1)CC2` [Compound 29, N^5-(3,4-Difluorophenyl)-2-(3-fluorophenyl)-6,7-dihydropyrazolo[1,5-a]pyrazine-3,5(4H)-dicarboxamide]: the IC50 in experiment [1] was 10 to 100 nM. For `NC(=O)c1c(-c2cccc(F)c2)nn2c1CN(C(=O)Nc1cc(Cl)ccc1F)CC2` [Compound 33, N^5-(5-Chloro-2-fluorophenyl)-2-(3-fluorophenyl)-6,7-dihydropyrazolo[1,5-a]pyrazine-3,5(4H)-dicarboxamide], the concentration for half-maximal inhibition (IC50) in experiment [1] was in the range of 10 to 100 nM.

For `NC(=O)c1c(-c2cccc(F)c2)nn2c1CN(C(=O)NCc1ccc(Cl)c(Cl)c1)CC2` [Compound 46, N^5-(3,4-Dichlorobenzyl)-2-(3-fluorophenyl)-6,7-dihydropyrazolo[1,5-a]pyrazine-3,5(4H)-dicarboxamide], in experiment [1], the half-maximal inhibitory concentration (IC50) fell in the range of 10 to 100 nM.

In the case of `COc1ccc(NC(=O)N2CCn3nc(-c4cccc(F)c4)c(C(N)=O)c3C2)cc1OC` [Compound 66, N^5-(3,4-Dimethoxyphenyl)-2-(3-fluorophenyl)-6,7-dihydropyrazolo[1,5-a]pyrazine-3,5(4H)-dicarboxamide], the concentration for half-maximal inhibition (IC50) in experiment [1] was 10 to 100 nM. For the compound `NC(=O)c1c(-c2cccc(F)c2)nn2c1CN(C(=O)Nc1cccnc1)CC2` [Compound 68, 2-(3-Fluorophenyl)-N^5-(pyridin-3-yl)-6,7-dihydropyrazolo[1,5-a]pyrazine-3,5(4H)-dicarboxamide], the IC50 in experiment [1] lay within 10 to 100 nM.

On to `NC(=O)c1c(-c2cccc(F)c2)nn2c1CN(C(=O)Nc1cncnc1)CC2` [Compound 84, 2-(3-Fluorophenyl)-N^5-(pyrimidin-5-yl)-6,7-dihydropyrazolo[1,5-a]pyrazine-3,5(4H)-dicarboxamide], for which, in experiment [1], the half-maximal inhibitory concentration (IC50) was in the range of 10 to 100 nM. On to `NC(=O)c1c(-c2cccc(Cl)c2)nn2c1CN(C(=O)NC1CC(C(F)F)C1)CC2` (stereo not drawn) [Compound 256, 2-(3-Chlorophenyl)-N^5-(3-(difluoromethyl)cyclobutyl)-6,7-dihydropyrazolo[1,5-a]pyrazine-3,5(4H)-dicarboxamide], for which the IC50 in experiment [2] was 0.01 to 10 nM.

Consider `NC(=O)c1c(-c2cccc(Cl)c2)nn2c1CN(C(=O)NC1CC(C(F)F)C1)CC2` (stereo not drawn) [Compound 257, 2-(3-Chlorophenyl)-N^5-(3-(difluoromethyl)cyclobutyl)-6,7-dihydropyrazolo[1,5-a]pyrazine-3,5(4H)-dicarboxamide], for which the IC50 in experiment [2] lay within 0.01 to 10 nM. For the compound `N#Cc1ccc(O[C@H]2C[C@H](NC(=O)N3CCn4nc(-c5ccc(Cl)c(Cl)c5)c(C(N)=O)c4C3)C2)cc1` [Compound 268, N^5-((1r,3r)-3-(4-Cyanophenoxy)cyclobutyl)-2-(3,4-dichlorophenyl)-6,7-dihydropyrazolo[1,5-a] pyrazine-3,5(4H)-dicarboxamide], the IC50 in experiment [2] fell in the range of 0.01 to 10 nM. Regarding `N#Cc1ccc([C@H]2C[C@@H](NC(=O)N3CCn4nc(-c5ccc(F)c(Cl)c5)c(C(N)=O)c4C3)C2)cc1` [Compound 282, 2-(3-Chloro-4-fluorophenyl)-N^5-((1s,3s)-3-(4-cyanophenyl)cyclobutyl)-6,7-dihydropyrazolo[1,5-a]pyrazine-3,5(4H)-dicarboxamide], the IC50 in experiment [2] lay within 0.01 to 10 nM. Still for that read-out and setting: under `CCC1(NC(=O)N2CCn3nc(-c4ccc(Cl)c(Cl)c4)c(C(N)=O)c3C2)CC(F)(F)C1` [Compound 301, 2-(3,4-Dichlorophenyl)-N^5-(1-ethyl-3,3-difluorocyclobutyl)-6,7-dihydropyrazolo[1,5-a]pyrazine-3,5(4H)-dicarboxamide] stands 0.01 to 10 nM; under `CC(C)(O)[C@H](F)CNC(=O)N1CCn2nc(-c3cccc(Cl)c3)c(C(N)=O)c2C1` [Compound 337, (R)-2-(3-Chlorophenyl)-N^5-(2-fluoro-3-hydroxy-3-methylbutyl)-6,7-dihydropyrazolo[1,5-a]pyrazine-3,5(4H)-dicarboxamide], 0.01 to 10 nM; under `CC(C)(C)NC(=O)N1Cc2c(C(N)=O)c(-c3cccc(Cl)c3)nn2C(CO)C1` (stereo not drawn) [Compound A2, N^5-(tert-Butyl)-2-(3-chlorophenyl)-7-(hydroxymethyl)-6,7-dihydropyrazolo[1,5-a] pyrazine-3,5(4H)-dicarboxamide], 0.01 to 10 nM.

Take `NC(=O)c1c(-c2cccc(Cl)c2)nn2c1CN(C(=O)NC(CF)(CF)CF)CC2` [Compound A41, 2-(3-Chlorophenyl)-N^5-(1,3-difluoro-2-(fluoromethyl)propan-2-yl)-6,7-dihydropyrazolo[1,5-a] pyrazine-3,5(4H)-dicarboxamide]: the IC50 in experiment [2] fell in the range of 0.01 to 10 nM.

Turning to `N#CC1(NC(=O)N2CCn3nc(-c4cccc(Cl)c4)c(C(N)=O)c3C2)CCC1` [Compound A43, 2-(3-Chlorophenyl)-N^5-(1-cyanocyclobutyl)-6,7-dihydropyrazolo[1,5-a]pyrazine-3,5(4H)-dicarboxamide], the IC50 in experiment [2] was in the range of 0.01 to 10 nM.

`CC1(NC(=O)N2CCn3nc(-c4cccc(Cl)c4)c(C(N)=O)c3C2)CCC1` [Compound A44, 2-(3-Chlorophenyl)-N^5-(1-methylcyclobutyl)-6,7-dihydropyrazolo[1,5-a]pyrazine-3,5(4H)-dicarboxamide]: the concentration for half-maximal inhibition (IC50) in experiment [2] was 0.01 to 10 nM. The same measure, in the same setting: the value for `N#CC1(NC(=O)N2CCn3nc(-c4cccc(Cl)c4)c(C(N)=O)c3C2)CC1` [Compound A45, 2-(3-Chlorophenyl)-N^5-(1-cyanocyclopropyl)-6,7-dihydropyrazolo[1,5-a]pyrazine-3,5(4H)-dicarboxamide] was 0.01 to 10 nM; that for `NC(=O)c1c(-c2ccc(F)c(Cl)c2)nn2c1CN(C(=O)NC13CCC(C(F)F)(CC1)CC3)CC2` [Compound A57, 2-(3-Chloro-4-fluorophenyl)-N^5-(4-(difluoromethyl)bicyclo[2.2.2]octan-1-yl)-6,7-dihydropyrazolo[1,5-a]pyrazine-3,5(4H)-dicarboxamide] was 0.01 to 10 nM.

For `COC12CCC(NC(=O)N3CCn4nc(-c5ccc(F)c(Cl)c5)c(C(N)=O)c4C3)(CC1)CC2` [Compound A59, 2-(3-Chloro-4-fluorophenyl)-N^5-(4-methoxybicyclo[2.2.2]octan-1-yl)-6,7-dihydropyrazolo[1,5-a]pyrazine-3,5(4H)-dicarboxamide], the half-inhibitory concentration (IC50) in experiment [2] fell in the range of 0.01 to 10 nM. `COC12CCC(NC(=O)N3CCn4nc(-c5ccc(F)c(Cl)c5)c(C(N)=O)c4C3)(CC1)C(=O)C2` [Compound A60, 2-(3-Chloro-4-fluorophenyl)-N^5-(4-methoxy-2-oxobicyclo[2.2.2]octan-1-yl)-6,7-dihydropyrazolo[1,5-a]pyrazine-3,5(4H)-dicarboxamide]: the half-maximal inhibitory concentration (IC50) in experiment [2] was 0.01 to 10 nM. Consider `N#CC12C3C4C1C1C2C3C41NC(=O)N1CCn2nc(-c3ccc(F)c(Cl)c3)c(C(N)=O)c2C1` (stereo not drawn) [Compound A70, N^5-(4-Cyanocuban-1-yl)-2-(3-chloro-4-fluorophenyl)-6,7-dihydropyrazolo[1,5-a]pyrazine-3,5(4H)-dicarboxamide], for which the concentration for half-maximal inhibition (IC50) in experiment [2] was 0.01 to 10 nM. The same measure, in the same setting: the value for `NC(=O)c1c(-c2ccc(F)c(Cl)c2)nn2c1CN(C(=O)NC13C4C5C1C1C3C4C51F)CC2` (stereo not drawn) [Compound A71, N^5-(4-Fluorocuban-1-yl)-2-(3-chloro-4-fluorophenyl)-6,7-dihydropyrazolo[1,5-a]pyrazine-3,5(4H)-dicarboxamide] was 0.01 to 10 nM; that for `NC(=O)c1c(-c2ccc(F)c(Cl)c2)nn2c1CN(C(=O)NC13C4C5C6C4C1C6C53)CC2` (stereo not drawn) [Compound A72, N^5-(Cuban-1-yl)-2-(3-chloro-4-fluorophenyl)-6,7-dihydropyrazolo[1,5-a]pyrazine-3,5(4H)-dicarboxamide] was 0.01 to 10 nM; that for `NC(=O)c1c(-c2ccc(F)c(Cl)c2)nn2c1CN(C(=O)NC13CCC(CC1)C3)CC2` [Compound A73, N^5-(Bicyclo[2.2.1]heptan-1-yl)-2-(3-chloro-4-fluorophenyl)-6,7-dihydropyrazolo[1,5-a]pyrazine-3,5(4H)-dicarboxamide] was 0.01 to 10 nM.

For the compound `N#Cc1ccc(C23CCC(NC(=O)N4CCn5nc(-c6cccc(Cl)c6)c(C(N)=O)c5C4)(CC2)CC3)cc1` [Compound A74, 2-(3-Chlorophenyl)-N^5-(4-(4-cyanophenyl)bicyclo[2.2.2]octan-1-yl)-6,7-dihydropyrazolo[1,5-a]pyrazine-3,5(4H)-dicarboxamide], the 50% inhibitory concentration (IC50) in experiment [2] was in the range of 0.01 to 10 nM. Still for that read-out and setting: the value for `NC(=O)c1c(-c2cccc(Cl)c2)nn2c1CN(C(=O)NC13CCC(F)(CC1)CC3)CC2` [Compound A75, 2-(3-Chlorophenyl)-N^5-(4-fluorobicyclo[2.2.2]octan-1-yl)-6,7-dihydropyrazolo[1,5-a]pyrazine-3,5(4H)-dicarboxamide] was 0.01 to 10 nM.

As a reminder, the IC50 is the concentration needed to halve the response being measured.
